The values below come from PMC12751025, “α‑Aminoboronic Acid Moieties in Boro Dipeptides Modulate Proteasome Subunit Selectivity and Provide Access to Compounds with Potent Anticancer and Anti-Inflammatory Activity” (Journal of Medicinal Chemistry, 2025).

Where “and” joins values, the source holds several entries; their conditions need not be identical. Equal values may be shown once. Read-outs that look alike come from different tables or passages of the source.

By IC50 is commonly meant the midpoint of a concentration-inhibition curve.

One test has as its system β1c. Particulars: in parentheses in Table S2, SI reference list, cited from earlier work.
The target of the next test is β1i subunit of human iCP (Homo sapiens, UniProt P28065+P40306). The test is described as follows: IC50 determination with subunit-specific fluorogenic substrate Ac-PAL-AMC. The note with it: IC50 β1i.
The next test concerns the target β5i subunit of human iCP (Homo sapiens, UniProt P20618+P28062). The test is described as follows: IC50 determination with fluorogenic substrate Ac-ANW-AMC. Particulars: for IC50: IC50 β5i.
The target in a further test is β2i subunit of human iCP (Homo sapiens, UniProt P40306+P49720). The test is described as follows: IC50 determination with fluorogenic substrate Ac-RLR-AMC (PA28β added).
For test [1], the system named is all subunits of the human cCP and iCP. The test is described as follows: Subunit inhibition profile and preference across cCP and iCP subunits. It counts as biochemical. Particulars: for fold lower potency on the cCP counterparts of β1i and β5i: β1c, β5c vs β1i.
Method: (§1) The final assay mixtures contained 0.4 nM human iCP or cCP in assay buffer (50 mM Tris-HCl, 0.5 mM EDTA, pH 7.4, addition of PA28β for β2c and β2i subunits). […] After incubation at 37 °C for 30 min, the reaction was initiated by the addition of the substrate Ac-nLPnLD-AMC for β1c, Ac-PAL-AMC for β1i, Ac-RLR-AMC for β2c and β2i, Ac-WLA-AMC for β5c, and Ac-ANW-AMC for β5i. Fluorescence was monitored at 460 nm (excitation at 360 nm) for 60 min at 37 °C. The reaction progress was recorded and the initial linear phases were used to determine the velocity. The IC50 values were calculated using GraphPad Prism software (GraphPad Software, San Diego, CA, USA), and the results represent the mean values of at least three independent determinations.
Another test addresses T1, β1c subunit of human cCP (Homo sapiens, UniProt P28072+Q99436).
T1 construct: purchased Boston Biochem, Inc
The test is described as follows: IC50 determination with subunit-specific fluorogenic substrate Ac-nLPnLD-AMC. It counts as biochemical.

Another test has as its target T2, β2c subunit of human cCP (Homo sapiens, UniProt P49720+Q99436).
T2 construct: purchased Boston Biochem, Inc
The test is described as follows: IC50 determination with fluorogenic substrate Ac-RLR-AMC (PA28β added). Type of test: biochemical.

In the next test the target is T3, β5c subunit of human cCP (Homo sapiens, UniProt P20618+P28074).
T3 construct: purchased Boston Biochem, Inc
Put plainly: IC50 determination with fluorogenic substrate Ac-WLA-AMC. Type of test: biochemical.

A further test has as its system β2i. The note with it: in parentheses in Table S2; SI reference list; read-out: IC50 β2i, previously published data; cited from earlier work.
A further test deals with β1i. The note with it: in parentheses in Table S2; SI reference list; read-out: IC50 β1i, previously published data; cited from earlier work.
The next test has as its system β5i. Particulars: in parentheses in Table S2; SI reference list; read-out: IC50 β5i, previously published data; cited from earlier work.
A further test relates to β2c. Particulars: in parentheses in Table S2; SI reference list; read-out: IC50 β2c, previously published data; cited from earlier work.
In the next test the test system is LPS-stimulated PBMCs. Put plainly: Cytokine secretion, Cytometric Bead Array. Type of test: cell-based, human. The note with it: 250 nM; 1 h pretreatment, LPS 1 μg/mL, 24 h; IL-1, IL-6, IL-8, IL-10, TNF-α. As for the experimental part:
PBMCs (1.5 × 10^6/mL) were plated in culture media in 96-well round-bottom plates. After a 60 min treatment with compounds at 37 °C and 5% CO2, cells were stimulated with LPS (Escherichia coli, O111:B4, 1 μg/mL, Sigma) for 24 h. Supernatants were then collected and analyzed for cytokine release by Human Inflammatory Cytokine Cytometric Bead Array (BD Biosciences, New Jersey, USA).

The subject of the next test is β5c. The note with it: in parentheses in Table S2; SI reference list; read-out: IC50 β5c, previously published data; cited from earlier work.
The mark [2] stands for this setting: human iCP, mean of at least three experiments, NA: not active at 50 μM.
The mark [3] stands for this setting: human cCP, mean of at least three experiments, NA: not active at 50 μM.
The mark [4] stands for this setting: read-out: IC50 β1c, previously published data.

Method for β1c subunit of human cCP: (§2) The measurements of the residual activity of control compounds were carried out at final compound concentrations of 1 μM in the assay buffer (50 mM Tris-HCl, 0.5 mM ethylenediaminetetraacetic acid (EDTA), pH 7.4). Stock solutions of the compounds were prepared in DMSO. To the 35 μL of solution of the compound in the buffer, 35 μL of 0.4 nM human iCP (South Bay Bio, San Jose, CA, USA) or human cCP (Boston Biochem, Inc., Cambridge, MA, USA) was added. For assays evaluating the activity of β2c and β2i, the buffer was modified by adding the proteasomal activator PA28β (Boston Biochem, Inc., Cambridge, MA, USA) at a final concentration of 6 nM. […] The substrates used were acetyl-Nle-Pro-Nle-Asp-7-amino-4-methylcoumarin (Ac-nLPnLD-AMC, Bachem, Bubendorf, Switzerland) for β1c, acetyl-Pro-Ala-Leu-7-amino-4-methylcoumarin (Ac-PAL-AMC, Boston Biochem, Inc., Cambridge, MA, USA) for β1i, acetyl-Arg-Leu-Arg-7-amino-4-methylcoumarin (Ac-RLR-AMC, Bachem, Bubendorf, Switzerland) for β2c and β2i, acetyl-Trp-Leu-Ala-7-amino-4-methylcoumarin (Ac-WLA-AMC, Bachem, Bubendorf, Switzerland) for β5c, and acetyl-Ala-Asn-Trp-7-amino-4-methylcoumarin (Ac-ANW-AMC, Bachem, Bubendorf, Switzerland) for β5i. Progress of the reaction was measured using a BioTek Synergy HT microplate reader, monitoring fluorescence at 460 nm (excitation at 360 nm) for 60 min at 37 °C. The initial linear ranges were used to calculate the reaction velocity and determine the residual activity.
as §1
Method for β1i subunit of human iCP: as §2, §1
Method for β2c subunit of human cCP: Stock solutions of the compounds were prepared in DMSO. To the 35 μL of solution of the compound in the buffer, 35 μL of 0.4 nM human iCP (South Bay Bio, San Jose, CA, USA) or human cCP (Boston Biochem, Inc., Cambridge, MA, USA) was added. For assays evaluating the activity of β2c and β2i, the buffer was modified by adding the proteasomal activator PA28β (Boston Biochem, Inc., Cambridge, MA, USA) at a final concentration of 6 nM. […] The substrates used were acetyl-Nle-Pro-Nle-Asp-7-amino-4-methylcoumarin (Ac-nLPnLD-AMC, Bachem, Bubendorf, Switzerland) for β1c, acetyl-Pro-Ala-Leu-7-amino-4-methylcoumarin (Ac-PAL-AMC, Boston Biochem, Inc., Cambridge, MA, USA) for β1i, acetyl-Arg-Leu-Arg-7-amino-4-methylcoumarin (Ac-RLR-AMC, Bachem, Bubendorf, Switzerland) for β2c and β2i, acetyl-Trp-Leu-Ala-7-amino-4-methylcoumarin (Ac-WLA-AMC, Bachem, Bubendorf, Switzerland) for β5c, and acetyl-Ala-Asn-Trp-7-amino-4-methylcoumarin (Ac-ANW-AMC, Bachem, Bubendorf, Switzerland) for β5i. Progress of the reaction was measured using a BioTek Synergy HT microplate reader, monitoring fluorescence at 460 nm (excitation at 360 nm) for 60 min at 37 °C. The initial linear ranges were used to calculate the reaction velocity and determine the residual activity.
as §1
Method for β2i subunit of human iCP: as §2, §1
Method for β5c subunit of human cCP: as §2, §1
Method for β5i subunit of human iCP: as §2, §1

In the case of `CC(C)C[C@H](NC(=O)[C@H](CCc1ccccc1)NC(=O)CN1CCOCC1)C(=O)N[C@@H](Cc1ccccc1)C(=O)N[C@@H](CC(C)C)C(=O)[C@@]1(C)CO1` [carfilzomib], the IC50 with β1c (read-out: IC50 β1c, literature data) is 0.013 µM.

In the case of `COc1ccc([C@H](NC(=O)[C@H](Cc2ccccc2)NC(=O)c2cnccn2)B(O)O)cc1` [5e, ((R)-(4-Methoxyphenyl)((S)-3-phenyl-2-(pyrazine-2-carboxamido)propanamido)methyl)boronic Acid], the IC50 amounted to 40 nM at β1i subunit of human iCP (setting [2]); 15 nM on β5i subunit of human iCP (setting [2]); 10400 nM on β2i subunit of human iCP; 1340 nM against β1c subunit of human cCP (setting [3]); 79 µM on β2c subunit of human cCP (setting [3]); 402 nM on β5c subunit of human cCP (setting [3]). For the same molecule, in [1], the “fold lower potency on the cCP counterparts of β1i and β5i” value (from here on “fold lower potency … of β1i and β5i”) is on record as 10–20 fold.

On to `CC[C@H](NC(=O)[C@H](Cc1ccccc1)NC(=O)c1cnccn1)B(O)O` [5j, ((R)-1-((S)-3-phenyl-2-(pyrazine-2-carboxamido)propanamido)propyl)boronic Acid], for which the IC50 at β1i subunit of human iCP (setting [2]) is 2 nM; against β5i subunit of human iCP (setting [2]), 19 nM; against β2i subunit of human iCP it was 1280 nM; on β1c subunit of human cCP (setting [3]) it was 21 nM; on β2c subunit of human cCP (setting [3]) it was 3.4 µM; on β5c subunit of human cCP (setting [3]), 11 nM.

For `CC(C)(C)ONC(=O)C[C@H](NC(=O)CCc1ccccc1)C(=O)N[C@@H](Cc1ccc(F)cc1)C(=O)NCc1cccc2ccccc12` [DPLG3], the IC50 with β2i was > 33.3 µM; against β1i subunit of human iCP (own assay) it was > 1000 nM; with β1c (setting [4]), > 33.3 µM; with β1i, > 33300 nM; in the test with β5i, 4.5 nM; in the test on β2c, > 33300 nM.

On to `O=C(N[C@@H](Cc1ccccc1)C(=O)N[C@H](B(O)O)C1CC1)c1cnccn1` [5k, ((R)-Cyclopropyl((S)-3-phenyl-2-(pyrazine-2-carboxamido)propanamido)methyl)boronic Acid], for which the IC50 against β1i subunit of human iCP (setting [2]) came out at 172 nM; against β5i subunit of human iCP (setting [2]) it was 9 nM; at β2i subunit of human iCP, 499 nM; on β1c subunit of human cCP (setting [3]) it was 827 nM; against β2c subunit of human cCP (setting [3]) it was 0.44 µM; at β5c subunit of human cCP (setting [3]) it was 5 nM. Moreover, in [1] (compared with bortezomib), the “fold lower potency on β1c and β1i” value was “approximately 80 fold”.

For `O=C(N[C@@H](Cc1ccccc1)C(=O)N[C@@H](Cc1ccccc1)B(O)O)c1cnccn1` [5i, ((R)-2-Phenyl-1-((S)-3-phenyl-2-(pyrazine-2-carboxamido)propanamido)ethyl)boronic Acid], the IC50 worked out at 54 nM at β1i subunit of human iCP (setting [2]); 17 nM at β5i subunit of human iCP (setting [2]); 3400 nM at β2i subunit of human iCP; 235 nM against β1c subunit of human cCP (setting [3]); 4.9 µM at β2c subunit of human cCP (setting [3]); 54 nM on β5c subunit of human cCP (setting [3]).

In the case of `O=C(N[C@@H](Cc1ccccc1)C(=O)N[C@H](B(O)O)c1ccc(F)cc1)c1cnccn1` [5c, ((R)-(4-Fluorophenyl)((S)-3-phenyl-2-(pyrazine-2-carboxamido)propanamido)methyl)boronic Acid], the IC50 was 38 nM against β1i subunit of human iCP (setting [2]), 32 nM against β5i subunit of human iCP (setting [2]), 526 nM against β1c subunit of human cCP (setting [3]) and 225 nM at β5c subunit of human cCP (setting [3]). Further, the “fold lower potency … of β1i and β5i” value in test [1] is given as 10–20 fold. Also, the “Effect on secretion of cytokines in LPS-stimulated PBMCs” value (“Effect on secretion of cytokines” below) with LPS-stimulated PBMCs is listed as “significantly diminished ability to affect cytokine release”.

For `COc1ccc([C@@H](O)[C@H](NC(=O)[C@H](C)NC(=O)CN2CCOCC2)C(=O)N[C@@H](CC2=CCCC2)C(=O)[C@@]2(C)CO2)cc1` [KZR-616, (2S,3R)-N-((S)-3-(Cyclopent-1-En-1-Yl)-1-((R)-2-Methyloxiran-2-yl)-1-Oxopropan-2-yl)-3-Hydroxy-3-(4-Methoxyphenyl)-2-((S)-2-(2-Morpholinoacetamido)Propanamido)Propenamide, reference compound], the IC50 is 688 nM with β5c; 0.623 µM with β2i; 96 ± 32 nM against β1i subunit of human iCP (own assay); 26 ± 21 nM on β5i subunit of human iCP (own assay); 338 ± 122 nM at β2i subunit of human iCP; > 10.6 µM in the test on β1c (setting [4]). Further, the IC50 was 131 nM with β1i; > 1000 nM on β1c subunit of human cCP (own assay); 39 nM in the test on β5i; 0.403 ± 0.151 µM on β2c subunit of human cCP (own assay); 426 ± 48 nM at β5c subunit of human cCP (own assay); 604 nM in the test on β2c. For the same molecule, the “Effect on secretion of cytokines” value with LPS-stimulated PBMCs is “reduced the secretion of IL-1, IL-6, IL-8, IL-10, and TNF-α to a significant degree”.

For `CC(C)C[C@H](NC(=O)C(C)(C)NC(=O)c1ccccc1C(F)(F)F)B(O)O` [ML604440, reference compound], the IC50 in the test on β5c was > 1000 nM; against β1i subunit of human iCP (own assay), 8 ± 5 nM; against β5i subunit of human iCP (own assay) it was > 1000 nM; on β2i subunit of human iCP it was > 1000 nM; with β1i, ~12.5 nM and 12.5 nM; at β1c subunit of human cCP (own assay), > 1000 nM. In addition, the IC50 with β5i was > 1000 nM; against β2c subunit of human cCP (own assay), > 1 µM; against β5c subunit of human cCP (own assay), > 1000 nM.

In the case of `C[C@]1(C(=O)[C@H](Cc2ccccc2)NC(=O)[C@H](CO)NC(=O)c2cccc(=O)[nH]2)CO1` [KZR-504], the IC50 in the test with β5c is 6900 nM; in the test with β2i, > 250 µM; against β1i subunit of human iCP (own assay), 59 ± 11 nM; against β2i subunit of human iCP, > 1000 nM; in the test with β1i it was 51 nM; in the test with β5i, 4300 nM. Besides, the IC50 on β2c subunit of human cCP (own assay) was > 1 µM; in the test on β2c, > 250000 nM.

Regarding `O=C(N[C@@H](Cc1ccccc1)C(=O)N[C@H](B(O)O)c1ccc2c(c1)OCO2)c1cnccn1` [5g, ((R)-Benzo[d][1,3]dioxol-5-yl((S)-3-phenyl-2-(pyrazine-2-carboxamido)propanamido)methyl)boronic Acid], the IC50 was determined as 201 nM against β1i subunit of human iCP (setting [2]); 18 nM against β5i subunit of human iCP (setting [2]); 8600 nM on β2i subunit of human iCP; 315 nM against β1c subunit of human cCP (setting [3]); 45 µM against β2c subunit of human cCP (setting [3]); 183 nM against β5c subunit of human cCP (setting [3]). In addition, the “IC50 for β5i, fold lower than for β1i, β1c, and β5c” value on β5i subunit of human iCP came out at 10 fold.

For the molecule `COc1ccc(C[C@H](NC(=O)[C@H](C)NC(=O)CN2CCOCC2)C(=O)N[C@@H](Cc2ccccc2)C(=O)[C@@]2(C)CO2)cc1` [ONX-0914], the IC50 with β5c is 54 nM; in the test with β1c (setting [4]) it was > 10 µM; in the test on β2c it was 1100 nM. Further, the “Effect on secretion of cytokines” value in the test with LPS-stimulated PBMCs is reported as “Very similar result”.

As for `CCOC(=O)c1cccc([C@H](NC(=O)[C@H](Cc2ccccc2)NC(=O)c2cnccn2)B(O)O)c1` [5f, ((R)-(3-(Ethoxycarbonyl)phenyl)((S)-3-phenyl-2-(pyrazine-2-carboxamido)propanamido)methyl)boronic Acid], the IC50 came out at 22400 nM against β1i subunit of human iCP (setting [2]), 1300 nM against β5i subunit of human iCP (setting [2]) and 3300 nM on β5c subunit of human cCP (setting [3]).

Regarding `O=C(N[C@@H](Cc1ccccc1)C(=O)N[C@H](B(O)O)c1ccccc1)c1cnccn1` [5a, ((R)-Phenyl((S)-3-Phenyl-2-(pyrazine-2-carboxamido)propanamido)methyl)boronic Acid], the values for the IC50 against β1i subunit of human iCP (setting [2]), against β5i subunit of human iCP (setting [2]) and on β5c subunit of human cCP (setting [3]) were 746 nM, 220 nM and 12800 nM, respectively.

Regarding `Cc1ccc([C@H](NC(=O)[C@H](Cc2ccccc2)NC(=O)c2cnccn2)B(O)O)cc1` [5b, ((R)-((S)-3-Phenyl-2-(pyrazine-2-carboxamido)propanamido)(p-tolyl)methyl)boronic Acid], the IC50 at β1i subunit of human iCP (setting [2]) was determined as 42 nM; against β5i subunit of human iCP (setting [2]), 32 nM; on β2i subunit of human iCP, 9800 nM; against β1c subunit of human cCP (setting [3]), 545 nM; against β5c subunit of human cCP (setting [3]), 712 nM. Also, the “fold lower potency … of β1i and β5i” value in test [1] was 10–20 fold. Further, the “Effect on secretion of cytokines” value in the test on LPS-stimulated PBMCs was “significantly diminished ability to affect cytokine release”.

As for `COc1ccc(C[C@H](NC(=O)[C@H](C)NC(=O)CN2CCOCC2)C(=O)N[C@@H](CC2CCCC3CCCCC32)C(=O)[C@@]2(C)CO2)cc1` (stereo partly shown) [Lu-002i], the IC50 was > 100000 nM with β5c, > 100 µM in the test on β1c (setting [4]), > 100000 nM in the test on β1i and > 100000 nM in the test on β5i.
